Measurements taken from patent US20100273711A1, “INDIVIDUALIZED CANCER TREATMENTS” (priority 2007, published 2010).
Entries after “also recorded” stand apart in the source; their conditions may differ.

How the values were obtained:
[1] = tested on: MCF7; settings: pemetrexed, cell line MCF7; cited from earlier work
[2] = tested on: MALME-3M; settings: pemetrexed, cell line MALME-3M; cited from earlier work
[3] = tested on: SW13; settings: pemetrexed, cell line Sw13; cited from earlier work
[4] = tested on: SNU182; settings: pemetrexed, cell line SNU182; cited from earlier work
[5] = tested on: FUOV1; settings: pemetrexed, cell line FUOV1; cited from earlier work
[6] = tested on: NSCLC cell line (H2030); assay: Cell proliferation and drug sensitivity assay (MTT colorimetric assay, 96 hrs), H2030; type: cell-based
Procedure: Lung and ovarian cancer cell culture. The NSCLC cell lines (H23, H225, H322, H358, H441, H520, A549, H647, H838, H1650, H1651, H1666, H1734, H1793, H1838, H2030 and H2 126) were grown as recommended by the supplier (ATCC, Rockville, Mo.). The ovarian cancer cell lines (OCV AR-3, OVCAR-5, TOV-21G and TOV-1120) were grown as recommended by the supplier (ATCC, Rockville, Mo.). FUOV-1, a human ovarian carcinoma, was grown according to the supplier (DSMZ, Braunschweig, Germany). Ten additional cell lines (C13, OV2008, A2780-CP, A2780S, IGROV-1, T8, IMCC3, 1MCC5, SKOV3 and A200S) were provided by Dr. Patricia Kruk (University of South Florida, Fla.). These ten cell lines were grown in RPMI 1640, supplemented with 10% Fetal Bovine Serum, 1% Sodium pyruvate, and 1% non essential amino acids. Tissue culture media and Thiazolyl Blue Tetrazolium Bromide were purchased from Sigma Aldrich (St. Louis, Mo.). […]
Cell proliferation and Drug sensitivity assays. Optimal cell number and linear range of drug concentration were determined for each cell line and drug as described previously (Bild A, Yao G, Chang S T, et al: Oncogenic pathways signatures in human cancers as guide to targeted therapies. Nature 439(7074):353-357, 2006, Potti A, Dressman H K, Bild A, et al: Genomic signatures to guide the use of chemotherapeutics. Nature Medicine 12(11): 1294-1300, 2006). […]

[7] = tested on: NCI-H226; settings: pemetrexed, cell line NCI-H226; cited from earlier work
[8] = tested on: SK-MEL-2; settings: pemetrexed, cell line SK-MEL-2; cited from earlier work
[9] = tested on: M14; settings: pemetrexed, cell line M14; cited from earlier work
[10] = tested on: K-562; settings: pemetrexed, cell line K-562; cited from earlier work
[11] = tested on: ES2; settings: pemetrexed, cell line ES2; cited from earlier work
[12] = tested on: DV90; settings: pemetrexed, cell line DV90; cited from earlier work
[13] = tested on: SNU423; settings: pemetrexed, cell line SNU423; cited from earlier work
[14] = tested on: A375; settings: pemetrexed, cell line A375; cited from earlier work
[15] = tested on: SKMel19; settings: pemetrexed, cell line SKMel19; cited from earlier work
[16] = tested on: BT20; settings: pemetrexed, cell line BT20; cited from earlier work
[17] = tested on: HCC-2998; settings: pemetrexed, cell line HCC-2998; cited from earlier work

Q: For `Nc1nc2[nH]cc(CCc3ccc(C(=O)N[C@@H](CCC(=O)O)C(=O)O)cc3)c2c(=O)[nH]1` [Pemetrexed, pemetrexed], which “Resistant (Res) or Sensitive (Sen)” value [1] is on record?
A: Res

Q: What about the “Resistant (Res) or Sensitive (Sen)” value [2] of the same compound?
A: Sen

Q: And the “Resistant (Res) or Sensitive (Sen)” value [3]?
A: Res

Q: What about the “Resistant (Res) or Sensitive (Sen)” value [4] of the same compound?
A: Res

Q: What about the “Resistant (Res) or Sensitive (Sen)” value [5] of the same compound?
A: Sen

Q: What about the “sensitivity to subsequent pemetrexed exposure” value ([6]; H2030 first treated for four days with a taxane (docetaxel or paclitaxel)) of the same compound?
A: resistance to subsequent pemetrexed exposure was induced; also recorded: develops resistance

Q: And the sensitivity to pemetrexed ([6]; H2030 first treated with pemetrexed)?
A: sensitive

Q: And the “Resistant (Res) or Sensitive (Sen)” value [7]?
A: Sen

Q: And the “Resistant (Res) or Sensitive (Sen)” value [8]?
A: Sen

Q: What about the “Resistant (Res) or Sensitive (Sen)” value [9] of the same compound?
A: Sen

Q: And the “Resistant (Res) or Sensitive (Sen)” value [10]?
A: Res

Q: What about the “Resistant (Res) or Sensitive (Sen)” value [11] of the same compound?
A: Res

Q: And the “Resistant (Res) or Sensitive (Sen)” value [12]?
A: Sen

Q: And the “Resistant (Res) or Sensitive (Sen)” value [13]?
A: Res

Q: What about the “Resistant (Res) or Sensitive (Sen)” value [14] of the same compound?
A: Res

Q: What about the “Resistant (Res) or Sensitive (Sen)” value [15] of the same compound?
A: Res

Q: What about the “Resistant (Res) or Sensitive (Sen)” value [16] of the same compound?
A: Sen

Q: And the “Resistant (Res) or Sensitive (Sen)” value [17]?
A: Res
